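Protocol summary: plate cells (96-well), add compound at 5 concentrations, incubate 48 h, interpolate endpoints linearly. GI50 marks 50% less growth.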 Active and inactive are the calls of the source. Rule as the data show it: active = GI50 up to about 1.1 µM and inactive = higher.
How the values were obtained:
Experiment in all cases: inhibition of tumour cell growth, NCI panel, 48 h
A498 = system: A498
A549 = system: A549
CAKI-1 = system: CAKI-1
COLO 205 = system: COLO 205
EKVX = system: EKVX
HL-60 = system: HL-60
Hs-578T = system: Hs-578T
IGROV-1 = system: IGROV-1
K562 = system: K562
MDA-N = system: MDA-N
NCI-H226 = system: NCI-H226
NCI-H23 = system: NCI-H23
NCI-H522 = system: NCI-H522
OVCAR-3 = system: OVCAR-3
SK-MEL-5 = system: SK-MEL-5
SNB-75 = system: SNB-75
TK-10 = system: TK-10
UACC-62 = system: UACC-62
UO-31 = system: UO-31

Compound	GI50 (A498)	GI50 (A549)	GI50 (CAKI-1)	GI50 (COLO 205)	GI50 (EKVX)	GI50 (HL-60)	GI50 (Hs-578T)	GI50 (IGROV-1)	GI50 (K562)	GI50 (MDA-N)	GI50 (NCI-H226)	GI50 (NCI-H23)	GI50 (NCI-H522)	GI50 (OVCAR-3)	GI50 (SK-MEL-5)	GI50 (SNB-75)	GI50 (TK-10)	GI50 (UACC-62)	GI50 (UO-31)
CN(C)CCNC(=O)c1ccc(NCCCN(C)CCCNc2ccc(C(=O)NCCN(C)C)c3nc4ccc([N+](=O)[O-])cc4c(O)c23)c2c(O)c3cc([N+](=O)[O-])ccc3nc12	0.116 µM (active)	< 0.01 µM (active)	0.757 µM (active)	< 0.0133 µM (active)	0.301 µM (active)	0.0277 µM (active)	0.0798 µM (active)	< 0.01 µM (active)	0.0135 µM (active)	0.155 µM (active)	< 0.01 µM (active)	0.126 µM (active)	< 0.01 µM (active)	0.186 µM (active)	0.0346 µM (active)	0.14 µM (active)	0.124 µM (active)	0.0538 µM (active)	0.154 µM (active)
CN1CCN(C2=CC(=O)c3c(O)ccc(O)c3C2=O)CC1	1.54 µM (inactive)	1.79 µM (inactive)	1.6 µM (inactive)	0.166 µM (active)	1.86 µM (inactive)	0.298 µM (active)	2.03 µM (inactive)	1.64 µM (inactive)	0.347 µM (active)	0.175 µM (active)	1.59 µM (inactive)	1.4 µM (inactive)	1.71 µM (inactive)	0.23 µM (active)	0.179 µM (active)	1.61 µM (inactive)	2.74 µM (inactive)	1.65 µM (inactive)	1.55 µM (inactive)
COc1ccc(NC2Oc3cc4c(cc3C(c3cc(OC)c(OC)c(OC)c3)C2C)OCO4)cc1 (stereo unspecified)	0.316 µM (active)	0.685 µM (active)	0.51 µM (active)	0.386 µM (active)	3.56 µM (inactive)	0.248 µM (active)	0.398 µM (active)	0.771 µM (active)	0.223 µM (active)	0.0811 µM (active)	0.552 µM (active)	0.847 µM (active)	0.311 µM (active)	0.255 µM (active)	0.33 µM (active)	0.301 µM (active)	5.33 µM (inactive)	0.597 µM (active)	0.891 µM (active)
C/C1=C/C2=CC(C)C[C@@H]2C(=O)[C@]2(C)C(=O)CC(C)(C)[C@H]2CC1=O (stereo partly specified)	> 50 µM (inactive)	> 50 µM (inactive)	> 50 µM (inactive)	> 50 µM (inactive)	> 50 µM (inactive)	9.73 µM (inactive)	> 50 µM (inactive)	> 50 µM (inactive)	32.3 µM (inactive)	> 50 µM (inactive)	> 50 µM (inactive)	> 50 µM (inactive)	> 50 µM (inactive)	> 50 µM (inactive)	> 50 µM (inactive)	> 50 µM (inactive)	> 50 µM (inactive)	> 50 µM (inactive)	> 50 µM (inactive)
Cc1c2c(C(N)=O)nccc2c(C)c2c1c1ccccc1n2Cc1ccccc1	21 µM (inactive)	14.8 µM (inactive)	17.6 µM (inactive)	> 10 µM (inactive)	43.6 µM (inactive)	23.3 µM (inactive)	6.07 µM (inactive)	16.2 µM (inactive)	22.7 µM (inactive)	29 µM (inactive)	23.7 µM (inactive)	23.1 µM (inactive)	23.7 µM (inactive)	3.97 µM (inactive)	34.8 µM (inactive)	5.33 µM (inactive)	15.9 µM (inactive)	60.4 µM (inactive)	16.4 µM (inactive)
COc1cc(/C=C/C(=N\NC(=S)NN)c2sc(NNC(C)=O)nc2C)ccc1O	> 100 µM (inactive)	> 100 µM (inactive)	> 100 µM (inactive)	> 100 µM (inactive)	> 100 µM (inactive)	> 100 µM (inactive)	> 100 µM (inactive)	> 100 µM (inactive)	> 100 µM (inactive)	> 100 µM (inactive)	> 100 µM (inactive)	> 100 µM (inactive)	> 100 µM (inactive)	> 100 µM (inactive)	> 100 µM (inactive)	> 100 µM (inactive)	> 100 µM (inactive)	> 100 µM (inactive)	> 100 µM (inactive)
CCCCCCCCCCCCCCCCNc1ccn(C2CC(O)C(COC(c3ccccc3)(c3ccccc3)c3ccc(OC)cc3)O2)c(=O)n1 (stereo unspecified)	> 100 µM (inactive)	> 100 µM (inactive)	> 100 µM (inactive)	> 100 µM (inactive)	> 100 µM (inactive)	> 100 µM (inactive)	> 100 µM (inactive)	> 100 µM (inactive)	> 100 µM (inactive)	> 100 µM (inactive)	> 100 µM (inactive)	> 100 µM (inactive)	> 100 µM (inactive)	> 100 µM (inactive)	> 100 µM (inactive)	> 100 µM (inactive)	> 100 µM (inactive)	> 100 µM (inactive)	20.9 µM (inactive)
Cc1c(OCc2cccc3ccccc23)ccc2c(O)cc(=S)oc12	82.2 µM (inactive)	55.7 µM (inactive)	43 µM (inactive)	31.4 µM (inactive)	44.1 µM (inactive)	19.4 µM (inactive)	34.8 µM (inactive)	42.6 µM (inactive)	36.1 µM (inactive)	43.4 µM (inactive)	39.5 µM (inactive)	25.7 µM (inactive)	23.4 µM (inactive)	22.9 µM (inactive)	18.5 µM (inactive)	40.9 µM (inactive)	56.5 µM (inactive)	23.1 µM (inactive)	33.6 µM (inactive)
CC1=C(C(=S)Nc2ccc(Cl)c(C(=O)OC(C)C)c2)SCCO1	16.1 µM (inactive)	31 µM (inactive)	24.2 µM (inactive)	20 µM (inactive)	19.1 µM (inactive)	17.5 µM (inactive)	29.3 µM (inactive)	16.6 µM (inactive)	17.1 µM (inactive)	18.6 µM (inactive)	22.2 µM (inactive)	20.6 µM (inactive)	21.4 µM (inactive)	22.8 µM (inactive)	16.9 µM (inactive)	20.1 µM (inactive)	22.2 µM (inactive)	15.5 µM (inactive)	14.9 µM (inactive)
Cc1ccc(S(=O)(=O)N/N=C2/CC[C@H](C(C)(C)C)C[C@@H]2C)cc1	17.6 µM (inactive)	16.4 µM (inactive)	13.5 µM (inactive)	17 µM (inactive)	18 µM (inactive)	35.6 µM (inactive)	18.2 µM (inactive)	14.9 µM (inactive)	16.6 µM (inactive)	17.1 µM (inactive)	13.8 µM (inactive)	17.1 µM (inactive)	> 10 µM (inactive)	12.6 µM (inactive)	13.8 µM (inactive)	17.8 µM (inactive)	16.4 µM (inactive)	15.7 µM (inactive)	13.7 µM (inactive)
CC(O)(CCCCCl)c1nc2ccccc2s1 (stereo unspecified)	> 100 µM (inactive)	> 100 µM (inactive)	> 100 µM (inactive)	> 100 µM (inactive)	52.4 µM (inactive)	60.4 µM (inactive)	> 100 µM (inactive)	> 100 µM (inactive)	89.9 µM (inactive)	> 100 µM (inactive)	> 100 µM (inactive)	> 100 µM (inactive)	> 100 µM (inactive)	> 100 µM (inactive)	51.4 µM (inactive)	> 100 µM (inactive)	> 100 µM (inactive)	> 100 µM (inactive)	64.1 µM (inactive)
O=c1cc(CBr)c2ccc(O)cc2o1	25.8 µM (inactive)	92.5 µM (inactive)	43.6 µM (inactive)	> 100 µM (inactive)	21.7 µM (inactive)	48.3 µM (inactive)	> 100 µM (inactive)	81.8 µM (inactive)	69.8 µM (inactive)	98.9 µM (inactive)	78 µM (inactive)	47.1 µM (inactive)	42.1 µM (inactive)	32 µM (inactive)	45.9 µM (inactive)	> 100 µM (inactive)	88.5 µM (inactive)	55.3 µM (inactive)	58.5 µM (inactive)
CCOc1cccc(/C=N\c2ccccc2SSc2ccccc2/N=C\c2cccc(OCC)c2O)c1O	24.2 µM (inactive)	10.7 µM (inactive)	9.95 µM (inactive)	3.02 µM (inactive)	3.86 µM (inactive)	3.7 µM (inactive)	16.9 µM (inactive)	2.92 µM (inactive)	6.55 µM (inactive)	14.2 µM (inactive)	6.41 µM (inactive)	5.08 µM (inactive)	2.95 µM (inactive)	2.62 µM (inactive)	2.21 µM (inactive)	19.7 µM (inactive)	29 µM (inactive)	4.28 µM (inactive)	13.7 µM (inactive)
CCc1nc(N)nc(N)c1-c1ccc(N2CCNCC2)c([N+](=O)[O-])c1	39.7 µM (inactive)	3.09 µM (inactive)	64.3 µM (inactive)	15.3 µM (inactive)	23.8 µM (inactive)	4.59 µM (inactive)	18.5 µM (inactive)	7.55 µM (inactive)	0.718 µM (active)	4.85 µM (inactive)	65.9 µM (inactive)	7.85 µM (inactive)	24.4 µM (inactive)	35.3 µM (inactive)	8.59 µM (inactive)	36.6 µM (inactive)	> 100 µM (inactive)	6.08 µM (inactive)	78.7 µM (inactive)

— ChEMBL document CHEMBL1201862, “PubChem BioAssay data set” (2004)
